Results from ChEMBL document CHEMBL1201862, “PubChem BioAssay data set” (2004).
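Interpolation was linear, between the two tested concentrations surrounding the appropriate level; five concentrations were tested over 48 hours in 96-well plates. At the GI50, growth is halved.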 The source made the active and inactive calls. Cut-off read from the data, not from the text of the source: active = GI50 up to about 1.1 µM and inactive = higher.

What was measured:
Experiment in all cases: DTP human tumour cell line panel, 48 h
[1] = system: 786-0
[2] = system: A549
[3] = system: CAKI-1
[4] = system: COLO 205
[5] = system: HOP-62
[6] = system: HOP-92
[7] = system: Hs-578T
[8] = system: MCF7
[9] = system: Malme-3M
[10] = system: NCI-H460
[11] = system: NCI/ADR-RES
[12] = system: SK-MEL-28
[13] = system: SK-OV-3
[14] = system: SN12C
[15] = system: SNB-19
[16] = system: SR
[17] = system: TK-10
[18] = system: U-251
[19] = system: UACC-257
[20] = system: M19-MEL

Row | Compound | GI50 [1] | GI50 [2] | GI50 [3] | GI50 [4] | GI50 [5] | GI50 [6] | GI50 [7] | GI50 [8] | GI50 [9] | GI50 [10] | GI50 [11] | GI50 [12] | GI50 [13] | GI50 [14] | GI50 [15] | GI50 [16] | GI50 [17] | GI50 [18] | GI50 [19] | GI50 [20]
1 | Cc1cn([C@@H]2O[C@H](CO)[C@@H](O)[C@@H]2O)c(=O)[nH]c1=O | > 1000 µM (inactive) | > 1000 µM (inactive) | > 1000 µM (inactive) | > 1000 µM (inactive) | > 1000 µM (inactive) | > 1000 µM (inactive) | > 1000 µM (inactive) | > 1000 µM (inactive) | > 1000 µM (inactive) | > 1000 µM (inactive) | > 1000 µM (inactive) | > 1000 µM (inactive) | > 1000 µM (inactive) | > 1000 µM (inactive) | > 1000 µM (inactive) | > 1000 µM (inactive) | > 1000 µM (inactive) | > 1000 µM (inactive) | > 1000 µM (inactive) | –
2 | Cc1cc([N+](=O)[O-])c(C)c2c1[nH]c1ccc(O)cc12 | 39.4 µM (inactive) | > 100 µM (inactive) | > 100 µM (inactive) | 64.6 µM (inactive) | > 100 µM (inactive) | – | – | – | > 100 µM (inactive) | > 100 µM (inactive) | – | > 100 µM (inactive) | – | > 100 µM (inactive) | > 100 µM (inactive) | 28.8 µM (inactive) | > 100 µM (inactive) | – | > 100 µM (inactive) | > 100 µM (inactive)
3 | CC(CSc1nc2c(c(=N)n1-c1ccccc1)c(=S)n(-c1ccccc1)c(=S)n2-c1ccccc1)CN(C)C (stereo unspecified) | 1.15 µM (inactive) | 1.82 µM (inactive) | 1.61 µM (inactive) | 1.83 µM (inactive) | 1.88 µM (inactive) | 1.56 µM (inactive) | 2.5 µM (inactive) | 0.313 µM (active) | 1.71 µM (inactive) | 1.97 µM (inactive) | 3.08 µM (inactive) | 2.12 µM (inactive) | 4.06 µM (inactive) | 1.81 µM (inactive) | 4.65 µM (inactive) | 0.558 µM (active) | 1.69 µM (inactive) | 1.82 µM (inactive) | 1.79 µM (inactive) | –
4 | CCOC(=O)C12CCCC1(O)N(NC(N)=O)C(C)=C2C(=O)OC (stereo unspecified) | > 100 µM (inactive) | > 100 µM (inactive) | > 100 µM (inactive) | > 100 µM (inactive) | > 100 µM (inactive) | > 100 µM (inactive) | – | – | > 100 µM (inactive) | > 100 µM (inactive) | – | > 100 µM (inactive) | > 100 µM (inactive) | > 100 µM (inactive) | > 100 µM (inactive) | – | > 100 µM (inactive) | > 100 µM (inactive) | > 100 µM (inactive) | > 100 µM (inactive)
5 | CCOC(=O)NC/C=C/COC1CCCCO1 (stereo unspecified) | > 100 µM (inactive) | > 100 µM (inactive) | > 100 µM (inactive) | > 100 µM (inactive) | > 100 µM (inactive) | – | – | – | > 100 µM (inactive) | > 100 µM (inactive) | – | > 100 µM (inactive) | > 100 µM (inactive) | > 100 µM (inactive) | > 100 µM (inactive) | > 100 µM (inactive) | > 100 µM (inactive) | > 100 µM (inactive) | > 100 µM (inactive) | > 100 µM (inactive)
6 | COC(=O)c1ccc(C=C(C#N)C#N)cc1 | 16.9 µM (inactive) | > 100 µM (inactive) | 30.7 µM (inactive) | 27.7 µM (inactive) | 27 µM (inactive) | 14.7 µM (inactive) | – | – | 20.7 µM (inactive) | 83.6 µM (inactive) | – | 19.3 µM (inactive) | > 100 µM (inactive) | 19.3 µM (inactive) | 38.5 µM (inactive) | – | 27.9 µM (inactive) | 24.4 µM (inactive) | – | 25.2 µM (inactive)
7 | Nc1ccc2nc(Nc3ccc(F)cc3)cnc2c1 | > 100 µM (inactive) | > 100 µM (inactive) | > 100 µM (inactive) | > 100 µM (inactive) | > 100 µM (inactive) | – | – | – | > 100 µM (inactive) | > 100 µM (inactive) | – | > 100 µM (inactive) | – | > 100 µM (inactive) | > 100 µM (inactive) | 36.1 µM (inactive) | 87.3 µM (inactive) | – | > 100 µM (inactive) | > 100 µM (inactive)
8 | CN(CC(=O)O)c1ncc2c(n1)CCCC2 | > 100 µM (inactive) | > 100 µM (inactive) | > 100 µM (inactive) | > 100 µM (inactive) | > 100 µM (inactive) | > 100 µM (inactive) | > 100 µM (inactive) | > 100 µM (inactive) | > 100 µM (inactive) | > 100 µM (inactive) | > 100 µM (inactive) | > 100 µM (inactive) | > 100 µM (inactive) | > 100 µM (inactive) | > 100 µM (inactive) | > 100 µM (inactive) | > 100 µM (inactive) | > 100 µM (inactive) | > 100 µM (inactive) | –
9 | CC1=CCC23C(C1)OC(Br)(C=CC2(C)O)C3(C)C (stereo unspecified) | > 100 µM (inactive) | > 100 µM (inactive) | > 100 µM (inactive) | > 100 µM (inactive) | – | > 100 µM (inactive) | – | – | > 100 µM (inactive) | > 100 µM (inactive) | – | > 100 µM (inactive) | – | > 100 µM (inactive) | – | – | > 100 µM (inactive) | – | > 100 µM (inactive) | > 100 µM (inactive)
10 | COc1ccc(/C=C/C(=O)c2nc3ccccc3[nH]2)cc1 | 11.6 µM (inactive) | 24.9 µM (inactive) | 33.3 µM (inactive) | 13.2 µM (inactive) | 25.4 µM (inactive) | 14 µM (inactive) | 21.3 µM (inactive) | 8.38 µM (inactive) | 19 µM (inactive) | 20.5 µM (inactive) | 18.2 µM (inactive) | 24.5 µM (inactive) | 21.2 µM (inactive) | 25.7 µM (inactive) | 24.2 µM (inactive) | 2.71 µM (inactive) | 18.1 µM (inactive) | 13.8 µM (inactive) | 22 µM (inactive) | –
11 | O=C(N/C(=C\c1ccc(Cl)cc1)c1nc2ccccc2[nH]1)c1ccccc1 | 18.9 µM (inactive) | 25.4 µM (inactive) | 20.6 µM (inactive) | 17.7 µM (inactive) | – | 14.9 µM (inactive) | – | – | 34 µM (inactive) | 22.1 µM (inactive) | – | 18.5 µM (inactive) | 37.1 µM (inactive) | 21.9 µM (inactive) | 27.2 µM (inactive) | – | 30.3 µM (inactive) | 22.2 µM (inactive) | 19.2 µM (inactive) | 19 µM (inactive)
12 | O=C1[C@@H]2C(c3ccccc3Br)=NO[C@@H]2C(=O)N1c1ccc(Cc2ccc(N3C(=O)[C@H]4C(c5ccccc5Br)=NO[C@H]4C3=O)cc2)cc1 | > 100 µM (inactive) | > 100 µM (inactive) | > 100 µM (inactive) | > 100 µM (inactive) | > 100 µM (inactive) | > 100 µM (inactive) | – | – | > 100 µM (inactive) | > 100 µM (inactive) | – | > 100 µM (inactive) | > 100 µM (inactive) | > 100 µM (inactive) | – | – | > 100 µM (inactive) | > 100 µM (inactive) | > 100 µM (inactive) | > 100 µM (inactive)
13 | CC(=N\N=C\c1ccccn1)/C(C)=N/N=C/c1ccccn1 | > 100 µM (inactive) | > 100 µM (inactive) | > 100 µM (inactive) | > 100 µM (inactive) | > 100 µM (inactive) | > 100 µM (inactive) | > 100 µM (inactive) | 89.7 µM (inactive) | > 100 µM (inactive) | > 100 µM (inactive) | > 100 µM (inactive) | > 100 µM (inactive) | > 100 µM (inactive) | > 100 µM (inactive) | > 100 µM (inactive) | 88.5 µM (inactive) | > 100 µM (inactive) | > 100 µM (inactive) | > 100 µM (inactive) | –
14 | COC(=O)c1cc2c(=O)n(C)c3ccccc3n2c1C(=O)OC | 22.8 µM (inactive) | 66.4 µM (inactive) | 73.5 µM (inactive) | > 100 µM (inactive) | 16.9 µM (inactive) | 33 µM (inactive) | – | – | > 100 µM (inactive) | > 100 µM (inactive) | – | 70.5 µM (inactive) | 28.1 µM (inactive) | 42.5 µM (inactive) | 34.7 µM (inactive) | – | 25.6 µM (inactive) | 24.1 µM (inactive) | > 100 µM (inactive) | > 100 µM (inactive)
15 | CN1C(=O)[C@H](c2c[nH]c3ccccc23)[C@H](c2c[nH]c3ccccc23)C1=O | > 45.2 µM (inactive) | 32.9 µM (inactive) | 2.2 µM (inactive) | 1.33 µM (inactive) | 27.7 µM (inactive) | > 35.9 µM (inactive) | 31.3 µM (inactive) | 29.9 µM (inactive) | 36.5 µM (inactive) | 23.9 µM (inactive) | 27 µM (inactive) | 33.7 µM (inactive) | 38.2 µM (inactive) | 44.2 µM (inactive) | 41.4 µM (inactive) | 22.6 µM (inactive) | 22 µM (inactive) | 35.4 µM (inactive) | 29.5 µM (inactive) | –
16 | O=[N+]([O-])c1cc2oc(CSc3ccccc3)nc2cc1Cl | 34.6 µM (inactive) | 36.9 µM (inactive) | 29 µM (inactive) | 21.7 µM (inactive) | 41.7 µM (inactive) | 26.6 µM (inactive) | 51.6 µM (inactive) | 42.8 µM (inactive) | 50 µM (inactive) | 26.7 µM (inactive) | 12.9 µM (inactive) | 35.2 µM (inactive) | 29.5 µM (inactive) | 29.9 µM (inactive) | 45.1 µM (inactive) | 33.3 µM (inactive) | 35.8 µM (inactive) | 23.6 µM (inactive) | 28.6 µM (inactive) | –
